Key:
[1] = tested on: hop; experiment: Oxidation stress resistance against methyl viologen in hop leaves (leaf chlorosis, chlorophyll content), Example 10; assay type: in vivo, hop (variety: Hersbrucker); conditions: 1 mM, 5 μM methyl viologen, 22° C. 4 days
Protocol: A hop strain (the variety: Hersbrucker) was used as an experimental material. Hop seedlings grown in the field of Kirin Brewery Company, Limited in Iwate, Japan were used.
A Murashige and Skoog Plant Salt Mixture 2.2 g and glucose 20 g (FUJIFILM Wako) were dissolved in 1 l of pure water, and a pH was adjusted to 5.8. Thereafter, agar (8 g (Ina Food Industry Co., Ltd.) was dissolved and autoclaved (121° C., 15 minutes).
A Murashige and Skoog Plant Salt Mixture 2.2 g and glucose 20 g were dissolved in 1 l of pure water, a pH was adjusted to 5.8, and the resultant was autoclaved (121° C., 20 minutes).
Tissue-cultured seedlings required for evaluation of oxidation stress response of a hop were prepared in a laboratory. […]
Leaf chlorosis is observed in plants upon oxidation stress exposure. Thus, an extent of chlorosis was evaluated by measuring the content of the green pigment chlorophyll in leaves.
Plants in a well (3 leaves) was transferred to a 1.5-ml tube containing 1 ml of N,N-dimethylformamide and incubated at 4° C. in the dark for 1 day to extract the chlorophyll. The absorbance of the extract was measured at 647 nm and 664 nm, respectively, to calculate the chlorophyll content on a leaf fresh weight basis. The chlorophyll content was calculated in the same manner as in Example 1.

[2] = tested on: OsZAT12; experiment: OsZAT12 gene expression by real-time PCR, Example 12; assay type: in vivo, rice; conditions: Oryza sativa; 0.5 mM in medium, 30° C. for 2 hours, aboveground part; read-out: OsZAT12 expression level, increase vs control
Text: In order to design primers for the target genes necessary for gene expression analysis by real-time PCR, homologs of Arabidopsis thaliana high-temperature-responsive genes in rice were searched for. The amino acid sequence of Arabidopsis thaliana ZAT12 (AGI code: AT5G59820) was obtained from TAIR (https://www.arabidopsis.org/), and the nucleotide sequence of the homolog was obtained using RAP-DB (https://rapdb.dna.affrc.go.jp/). As a reference gene, the nucleotide sequence of the homolog of Arabidopsis thaliana ACTIN2 (AGI code: AT3G18780) was also obtained. Homolog genes in rice were designated as OsZAT12 and OsACT1, respectively.
The materials as employed in Example 3 were used.
The method as employed in Example 3 was employed.
The rice samples subjected to germination for 3 days were inoculated into a liquid medium consisting of a ½ Murashige and Skoog Plant Salt Mixture. Specifically, a liquid medium was dispensed at 3 ml/well to a 12-well microplate (IWAKI), and 3 samples were transferred to each well. N-acetylglutamic acid was applied to each well to the final concentration of 0.5 mM in the medium, incubation was performed at 30° C. for 2 hours, and RNA was extracted from the aboveground part using the RNeasy Plant Mini Kit. […]
Thereafter, the relative expression level of the target gene upon N-acetylglutamic acid treatment was calculated by the ΔΔCt method.

[3] = tested on: ZAT10; experiment: ZAT10 gene expression by real-time PCR, Example 11; assay type: in vivo; conditions: Arabidopsis thaliana; 0.4 mM, 22° C. for 2 hours; read-out: ZAT10 expression level, increase vs control
Protocol: The materials as used in Example 1 were used.
The medium as used in Example 1 was used.
To the Arabidopsis thaliana plants grown for 7 days in the same manner as in Example 1, 0.4 mM N-acetylglutamic acid or an equivalent amount of sterile water was added, and the plants were incubated at 22° C. for 2 hours. After incubation for 2 hours, the samples were frozen with liquid nitrogen, and RNA was extracted using the RNeasy Plant Mini Kit […].
cDNA that would be necessary as a real-time PCR template was synthesized from the RNA obtained. 1000 ng total RNA was used for each sample, and cDNA was synthesized using the Verso cDNA Synthesis Kit (Thermo Fischer Scientific). The synthesized cDNA was diluted to 5-fold with sterile distilled water and subjected to real-time PCR. For real-time PCR, a reaction solution containing ZAT10 (AGI code: AT1G27730) and ZAT12 (AGI code: AT5G59820) as the target genes, PP2AA3 (AGI code: AT1G13320) as the reference gene, and TB Green Ex Taq II (TakaRa) was prepared. PCR was performed with the use of the LightCycler® 480 System (Roche) with the number of amplification cycles of 50. The primers shown below were used.
Thereafter, the relative expression levels of the target genes upon N-acetylglutamic acid treatment were calculated by the ΔΔCt method using the Cp values obtained by real-time PCR.

CC(=O)N[C@@H](CCC(=O)O)C(=O)O [N-acetylglutamic acid]
leaf chlorosis in MV-treated group, compared with control group [1]: more suppressed
decrease in the chlorophyll content in the MV-treated groups, compared with the control group ([1]; leaf fresh weight basis): suppressed
fold induction at 500 µM [2]: 2.9
fold induction at 400 µM [3]: 28

Source: patent US20260324636A1, “COMPOSITION FOR PROVIDING PLANT WITH STRESS RESISTANCE” (KIRIN HOLDINGS KABUSHIKI KAISHA, priority 2022, published 2026)
